Key:
[1] = test system: Aβ deposited in the brains of Alzheimer's disease patients; experiment: Brain tissue assay: solubilisation of Aβ deposits from post-mortem AD brain (Western blot); set-up: species or system human; conditions: post-mortem brain homogenate in PBS, 24 h at room temperature, Western blot (FIG. 7); compound concentrations as in Table 1
Aβ1-28 = target: T1, Aβ1-28 (Homo sapiens, UniProt P05067); experiment: 1H NMR reaction of compound with Aβ1-28; type: binding; conditions: ~1 equivalent, 24 hrs in DMSO; 600 MHz 1H NMR, pH 6.9, 271 K
T1 construct: adding two equivalents of Cu^2+ to Aβ1-28
T1 sequence (P05067 672-699): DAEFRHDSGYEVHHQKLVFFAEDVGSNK
Method: 1.8 mgs of Aβ1-28 was dissolved in 5 mls DMSO was mixed with 0.33 mgs of compound KJB001 (˜1 equivalent) dissolved in 0.3 mls DMSO. The mixture was allowed to stand for 24 hrs before being freeze-dried. The resulting blue powder was dissolved in 550 μl of an aqueous solution containing 100 mM NaCl, 50 mM phosphate buffer, pH 6.9. A solution of 1.8 mgs Aβ1-28 dissolved in 550 μl of the same solution was used as a control.

[2] = test system: cerebral cortical neuron cultures; experiment: LDH assay for cell death: inhibition of Aβ1-42 neurotoxicity in vitro; type: cell-based; conditions: treatment alone; LDH release compared to untreated control cultures; 5 days; KJB030 dialysed, at most 20 μM; Aβ1-42 20 μM
Method: Compound KJB030 was dissolved in chelex 100-treated double distilled H2O (CH100-dH2O) at a concentration of 200 μM. Aβ1-42 was dissolved in either 200 μm KJB030 solution or in CH100-dH2O. Both solutions contained 200 μM Aβ1-42. The Aβ1-42 solutions were incubated at ambient temperature (˜20-24° C.) for 3 days. The solutions were then brought to a physiological state by adding 10× phosphate buffered saline (PBS), pH 7.4, thus bringing samples to 1×PBS. Samples were then incubated at 37° C. for 24 hr to induce aggregation of Aβ1-42. Samples were subsequently dialysed in microdialysis cups (3500 Mr cut-off) placed in 5 L PBS for 24 hr, in order to remove some of the excess KJB030 without loss of Aβ1-42.
Dialyzed samples were added to six day old cerebral cortical neuron cultures growing in Neurobasal medium with B27 supplements but without anti-oxidants (Gibco). Samples were diluted into the culture medium to a final concentration of 20 μM Aβ1-42. […]
Determination of cell death was performed using the lactate dehydrogenase (LDH) assay kit (Boehringer Mannheim). […] Culture medium was mixed with the reagents from the LDH kit as per the manufacturer's instructions and the level of LDH measured colourimetrically on a spectrophotometric 96 well plate reader at 490 nm.

reaction with His6, His13, His14 of Aβ1-28 (shift of histidine C2H peaks) (Aβ1-28)	Compound	ability to solubilise Aβ deposited in the brains of Alzheimer's disease patients [1]	% cell death [2] [%]
–	CC(C)(C)c1cc(C=N[C@H]2CCCC[C@@H]2N=Cc2cc(C(C)(C)C)cc(C(C)(C)C)c2[O-])c([O-])c(C(C)(C)C)c1.[Cl-].[Mn+3] [KJB002, (S,S)-(+)-N-N′-bis(3,5-di-tert-butylsalicylidene)-1-2-cyclohexane diamino manganese(III) chloride]	good activity	–
had reacted with these residues	[Co+2].c1ccc2c(c1)-c1nc-2nc2[n-]c(nc3nc(nc4[n-]c(n1)c1ccccc41)-c1ccccc1-3)c1ccccc21 [KJB001, Co(II) phthalocyanine β-form]	particularly strong solubilising activity	–
–	Aβ1-42: β-amyloid peptide 1-42, the neurotoxic agent in the LDH assay	–	22 ± 3.5
–	C1=Cc2nc1c(-c1ccccc1)c1ccc([nH]1)c(-c1ccccc1)c1nc(c(-c3ccccc3)c3ccc([nH]3)c2-c2ccccc2)C=C1.[Cl-].[Cl-].[Cl-].[Mn+3] [KJB007, 5,10,15,20-tetraphenyl-21H,23H-porphine manganese(III) chloride]	good activity	–
–	[Mn+2].c1ccc2c(c1)-c1nc3nc(nc4[n-]c(nc5[n-]c(nc-2n1)c1ccccc51)c1ccccc41)-c1ccccc1-3 [KJB006, Manganese(II) phthalocyanine]	good activity	–

From US7704987B1, “β-amyloid peptide inhibitors” (Prana Biotechnology Ltd, priority 1999, dated 2010)
